Laboratory results from patent publication US8741922B2, “Solid forms of N-(4-(7-azabicyclo[2.2,1]heptan-7-yl)-2-trifluoromethyl)phenyl)-4-oxo-5-(trifluoromethyl)-1,4-dihydroquinoline-3-carboxamide” (Vertex Pharmaceuticals Incorporated, priority 2009, dated 2014).

Target: T1, ΔF508-CFTR (Homo sapiens, UniProt P13569, DEL508-508)
T1 construct: expressed in transfected cells
Test: Membrane potential optical assay for ΔF508-CFTR potentiation (FLIPR III, voltage sensing dyes)
Assay type: cell-based
Details: assay not explicitly tied to the value, ΔF508-CFTR NIH 3T3 cells
Source text: Assays for Detecting and Measuring ΔF508-CFTR Potentiation Properties of Compounds
Membrane Potential Optical Methods for Assaying ΔF508-CFTR Modulation Properties of Compounds
The assay utilizes fluorescent voltage sensing dyes to measure changes in membrane potential using a fluorescent plate reader (e.g., FLIPR III, Molecular Devices, Inc.) as a readout for increase in functional ΔF508-CFTR in NIH 3T3 cells. The driving force for the response is the creation of a chloride ion gradient in conjunction with channel activation by a single liquid addition step after the cells have previously been treated with compounds and subsequently loaded with a voltage sensing dye.
To identify potentiators of ΔF508-CFTR, a double-addition HTS assay format was developed. This HTS assay utilizes fluorescent voltage sensing dyes to measure changes in membrane potential on the FLIPR III as a measurement for increase in gating (conductance) of ΔF508 CFTR in temperature-corrected ΔF508 CFTR NIH 3T3 cells. The driving force for the response is a Cl^− ion gradient in conjunction with channel activation with forskolin in a single liquid addition step using a fluorescent plate reader such as FLIPR III after the cells have previously been treated with potentiator compounds (or DMSO vehicle control) and subsequently loaded with a redistribution dye. […]

T1 sequence (P13569 with tags, fused parts or gaps DEL508-508): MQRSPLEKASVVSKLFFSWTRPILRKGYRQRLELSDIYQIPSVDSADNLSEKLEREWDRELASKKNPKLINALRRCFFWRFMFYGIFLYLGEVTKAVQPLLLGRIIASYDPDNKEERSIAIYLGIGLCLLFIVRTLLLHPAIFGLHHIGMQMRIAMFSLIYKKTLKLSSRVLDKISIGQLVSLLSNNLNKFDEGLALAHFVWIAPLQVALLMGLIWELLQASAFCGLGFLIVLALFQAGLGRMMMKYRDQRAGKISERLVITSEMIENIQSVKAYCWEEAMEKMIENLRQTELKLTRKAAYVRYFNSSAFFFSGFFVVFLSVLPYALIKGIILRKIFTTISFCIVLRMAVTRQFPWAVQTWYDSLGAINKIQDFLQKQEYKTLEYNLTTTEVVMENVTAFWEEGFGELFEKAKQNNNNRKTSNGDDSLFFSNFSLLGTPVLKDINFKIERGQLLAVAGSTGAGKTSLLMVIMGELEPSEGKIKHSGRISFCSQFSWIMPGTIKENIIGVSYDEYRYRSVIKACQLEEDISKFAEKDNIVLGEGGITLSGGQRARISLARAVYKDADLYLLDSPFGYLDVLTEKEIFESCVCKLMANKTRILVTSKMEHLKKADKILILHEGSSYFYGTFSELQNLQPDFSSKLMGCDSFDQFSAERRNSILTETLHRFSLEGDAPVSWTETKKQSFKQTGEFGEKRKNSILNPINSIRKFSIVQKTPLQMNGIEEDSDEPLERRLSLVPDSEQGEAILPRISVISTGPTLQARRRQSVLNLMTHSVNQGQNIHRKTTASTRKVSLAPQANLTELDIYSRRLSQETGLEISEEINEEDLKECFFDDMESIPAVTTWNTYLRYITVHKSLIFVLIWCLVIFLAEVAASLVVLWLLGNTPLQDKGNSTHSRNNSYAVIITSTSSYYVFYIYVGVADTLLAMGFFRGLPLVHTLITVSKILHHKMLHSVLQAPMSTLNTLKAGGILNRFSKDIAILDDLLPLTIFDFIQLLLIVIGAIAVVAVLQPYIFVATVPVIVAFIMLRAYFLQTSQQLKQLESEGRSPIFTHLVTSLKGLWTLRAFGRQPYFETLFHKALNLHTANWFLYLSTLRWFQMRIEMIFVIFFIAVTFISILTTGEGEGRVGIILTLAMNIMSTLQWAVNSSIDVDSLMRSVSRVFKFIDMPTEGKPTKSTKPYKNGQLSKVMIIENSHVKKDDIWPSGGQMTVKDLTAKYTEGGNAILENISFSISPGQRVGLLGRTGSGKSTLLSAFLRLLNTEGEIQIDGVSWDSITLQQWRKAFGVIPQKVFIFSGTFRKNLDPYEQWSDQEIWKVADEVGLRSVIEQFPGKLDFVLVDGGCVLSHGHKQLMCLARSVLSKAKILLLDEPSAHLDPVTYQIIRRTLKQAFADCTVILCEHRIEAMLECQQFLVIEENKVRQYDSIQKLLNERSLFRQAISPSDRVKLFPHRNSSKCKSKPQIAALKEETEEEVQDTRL

For `O=C(Nc1ccc(N2C3CCC2CC3)cc1C(F)(F)F)c1c[nH]c2cccc(C(F)(F)F)c2c1=O` [Compound I, Form A, N-(4-(7-azabicyclo[2.2.1]heptan-7-yl)-2-(trifluoromethyl)phenyl)-4-oxo-5-(trifluoromethyl)-1,4-dihydroquinoline-3-carboxamide], the EC50 was < 2 µM.
